In paper PMC6149898, “GPCR Modulation of Thieno[2,3-b]pyridine Anti-Proliferative Agents” (Molecules : A Journal of Synthetic Chemistry and Natural …, 2017):

Legend:
AVPR1B = AVPR1B (Homo sapiens, UniProt P47901); test: gpcrMAX PathHunter beta-arrestin
ADRA2C = ADRA2C (Homo sapiens, UniProt P18825); test: gpcrMAX PathHunter beta-arrestin
SCTR = SCTR (Homo sapiens, UniProt P47872); test: gpcrMAX PathHunter beta-arrestin
ADRA2B = ADRA2B (Homo sapiens, UniProt P18089); test: gpcrMAX PathHunter beta-arrestin
UTR2 = UTR2 (Homo sapiens, UniProt Q9UKP6); test: gpcrMAX PathHunter beta-arrestin
F2RL1 = F2RL1 (Homo sapiens, UniProt P55085); test: gpcrMAX PathHunter beta-arrestin
MC1R = MC1R (Homo sapiens, UniProt Q01726); test: gpcrMAX PathHunter beta-arrestin
HTR5A = HTR5A (Homo sapiens, UniProt P47898); test: gpcrMAX PathHunter beta-arrestin
GPR119 = GPR119 (Homo sapiens, UniProt Q8TDV5); test: gpcrMAX PathHunter beta-arrestin
TSHR(L) = TSHR(L) (Homo sapiens, UniProt P16473); test: gpcrMAX PathHunter beta-arrestin
GHSR = GHSR (Homo sapiens, UniProt Q92847); test: gpcrMAX PathHunter beta-arrestin
ADRA2A = ADRA2A (Homo sapiens, UniProt P08913); test: gpcrMAX PathHunter beta-arrestin
LC:NCI-H23 = tested on: LC:NCI-H23; parameters: method as in earlier work; settings: NCI-60 panel; ref [4],[5],[6],[7]; cited from earlier work
CCR7 = CCR7 (Homo sapiens, UniProt P32248); test: gpcrMAX PathHunter beta-arrestin
TRHR = TRHR (Homo sapiens, UniProt P34981); test: gpcrMAX PathHunter beta-arrestin
EBI2 = EBI2 (Homo sapiens, UniProt P32249); test: gpcrMAX PathHunter beta-arrestin
OXTR = OXTR (Homo sapiens, UniProt P30559); test: gpcrMAX PathHunter beta-arrestin
SSTR3 = SSTR3 (Homo sapiens, UniProt P32745); test: gpcrMAX PathHunter beta-arrestin
LC:NCI-H460 = tested on: LC:NCI-H460; parameters: method as in earlier work; settings: NCI-60 panel; ref [4],[5],[6],[7]; cited from earlier work
ME:SK-MEL-5 = tested on: ME:SK-MEL-5; parameters: method as in earlier work; settings: NCI-60 panel; ref [4],[5],[6],[7]; cited from earlier work
NPFFR1 = NPFFR1 (Homo sapiens, UniProt Q9GZQ6); test: gpcrMAX PathHunter beta-arrestin
CO:HCT-15 = tested on: CO:HCT-15; parameters: method as in earlier work; settings: NCI-60 panel; ref [4],[5],[6],[7]; cited from earlier work
CALCRL-RAMP1 = CALCRL-RAMP1 (Homo sapiens, UniProt O60894+Q16602); test: gpcrMAX PathHunter beta-arrestin
LTB4R = LTB4R (Homo sapiens, UniProt Q15722); test: gpcrMAX PathHunter beta-arrestin
GPR1 = GPR1 (Homo sapiens, UniProt P46091); test: gpcrMAX PathHunter beta-arrestin
RE:ACHN = tested on: RE:ACHN; parameters: method as in earlier work; settings: NCI-60 panel; ref [4],[5],[6],[7]; cited from earlier work
ME:LOX IMVI = tested on: ME:LOX IMVI; parameters: method as in earlier work; settings: NCI-60 panel; ref [4],[5],[6],[7]; cited from earlier work
CXCR1 = CXCR1 (Homo sapiens, UniProt P25024); test: gpcrMAX PathHunter beta-arrestin
ME:SK-MEL-2 = tested on: ME:SK-MEL-2; parameters: method as in earlier work; settings: NCI-60 panel; ref [4],[5],[6],[7]; cited from earlier work
GPR103 = GPR103 (Homo sapiens, UniProt Q96P65); test: gpcrMAX PathHunter beta-arrestin
OV:OVCAR-4 = tested on: OV:OVCAR-4; parameters: method as in earlier work; settings: NCI-60 panel; ref [4],[5],[6],[7]; cited from earlier work
EDG1 = EDG1 (Homo sapiens, UniProt P21453); test: gpcrMAX PathHunter beta-arrestin
C3AR1 = C3AR1 (Homo sapiens, UniProt Q16581); test: gpcrMAX PathHunter beta-arrestin
ME:MALME-3M = tested on: ME:MALME-3M; parameters: method as in earlier work; settings: NCI-60 panel; ref [4],[5],[6],[7]; cited from earlier work
SSTR5 = SSTR5 (Homo sapiens, UniProt P35346); test: gpcrMAX PathHunter beta-arrestin
PTGIR = PTGIR (Homo sapiens, UniProt P43119); test: gpcrMAX PathHunter beta-arrestin
HRH3 = HRH3 (Homo sapiens, UniProt Q9Y5N1); test: gpcrMAX PathHunter beta-arrestin
HTR2C = HTR2C (Homo sapiens, UniProt P28335); test: gpcrMAX PathHunter beta-arrestin
CCKAR = CCKAR (Homo sapiens, UniProt P32238); test: gpcrMAX PathHunter beta-arrestin
BDKRB1 = BDKRB1 (Homo sapiens, UniProt P46663); test: gpcrMAX PathHunter beta-arrestin

Chain of CXCR1 (P25024 whole entry): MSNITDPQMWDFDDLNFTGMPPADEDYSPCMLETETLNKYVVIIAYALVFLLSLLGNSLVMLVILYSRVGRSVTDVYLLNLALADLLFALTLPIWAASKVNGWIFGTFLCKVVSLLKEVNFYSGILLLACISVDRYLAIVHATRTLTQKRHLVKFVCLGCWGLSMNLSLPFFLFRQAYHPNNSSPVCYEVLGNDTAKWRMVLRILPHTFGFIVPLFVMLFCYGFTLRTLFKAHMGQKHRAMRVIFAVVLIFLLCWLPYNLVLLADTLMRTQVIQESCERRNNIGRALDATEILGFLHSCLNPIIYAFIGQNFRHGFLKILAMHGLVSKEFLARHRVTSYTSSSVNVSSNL
Chain of CCKAR (P32238 whole entry): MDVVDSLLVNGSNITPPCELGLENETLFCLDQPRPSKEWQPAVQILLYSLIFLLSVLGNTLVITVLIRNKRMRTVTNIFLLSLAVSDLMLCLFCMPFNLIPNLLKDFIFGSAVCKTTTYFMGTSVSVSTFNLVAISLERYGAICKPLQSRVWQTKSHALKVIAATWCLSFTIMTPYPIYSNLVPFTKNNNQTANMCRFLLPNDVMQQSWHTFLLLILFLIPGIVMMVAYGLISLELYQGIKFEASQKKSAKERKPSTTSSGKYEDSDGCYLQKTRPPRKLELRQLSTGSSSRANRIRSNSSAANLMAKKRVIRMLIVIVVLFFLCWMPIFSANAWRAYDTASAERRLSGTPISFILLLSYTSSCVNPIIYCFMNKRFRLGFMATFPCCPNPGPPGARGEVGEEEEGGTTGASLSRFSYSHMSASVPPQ
Chain of LTB4R (Q15722 whole entry): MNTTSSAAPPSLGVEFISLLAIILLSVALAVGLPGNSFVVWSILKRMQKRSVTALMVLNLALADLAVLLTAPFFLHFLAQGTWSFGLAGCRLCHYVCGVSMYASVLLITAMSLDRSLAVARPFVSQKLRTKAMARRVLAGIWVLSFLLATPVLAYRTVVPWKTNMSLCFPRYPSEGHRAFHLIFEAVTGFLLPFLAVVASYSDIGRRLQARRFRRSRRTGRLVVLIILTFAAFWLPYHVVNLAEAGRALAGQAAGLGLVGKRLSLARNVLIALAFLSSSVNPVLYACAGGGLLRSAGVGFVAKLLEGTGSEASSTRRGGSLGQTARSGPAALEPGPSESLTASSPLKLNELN
Chain of NPFFR1 (Q9GZQ6 whole entry): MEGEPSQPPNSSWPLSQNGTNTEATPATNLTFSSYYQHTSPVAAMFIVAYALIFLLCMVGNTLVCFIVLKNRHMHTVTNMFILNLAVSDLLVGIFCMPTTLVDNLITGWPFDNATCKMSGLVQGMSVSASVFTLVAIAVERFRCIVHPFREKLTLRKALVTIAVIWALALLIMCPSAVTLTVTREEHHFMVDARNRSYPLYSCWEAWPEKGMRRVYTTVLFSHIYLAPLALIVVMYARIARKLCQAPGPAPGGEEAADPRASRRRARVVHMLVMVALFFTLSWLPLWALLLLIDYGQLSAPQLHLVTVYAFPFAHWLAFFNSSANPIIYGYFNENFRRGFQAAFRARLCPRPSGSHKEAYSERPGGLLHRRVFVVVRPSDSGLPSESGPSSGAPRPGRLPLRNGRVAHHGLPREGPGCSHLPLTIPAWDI
Chain of MC1R (Q01726 whole entry): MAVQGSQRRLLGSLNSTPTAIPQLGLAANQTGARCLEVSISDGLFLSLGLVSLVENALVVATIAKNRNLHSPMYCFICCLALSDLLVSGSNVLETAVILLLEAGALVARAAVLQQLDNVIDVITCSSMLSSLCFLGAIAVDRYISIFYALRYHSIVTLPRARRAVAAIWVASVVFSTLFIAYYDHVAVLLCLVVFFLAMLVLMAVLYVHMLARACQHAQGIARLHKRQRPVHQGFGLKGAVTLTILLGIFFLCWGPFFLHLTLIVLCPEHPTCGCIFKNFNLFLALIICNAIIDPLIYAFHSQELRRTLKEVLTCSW
Chain of ADRA2A (P08913 whole entry): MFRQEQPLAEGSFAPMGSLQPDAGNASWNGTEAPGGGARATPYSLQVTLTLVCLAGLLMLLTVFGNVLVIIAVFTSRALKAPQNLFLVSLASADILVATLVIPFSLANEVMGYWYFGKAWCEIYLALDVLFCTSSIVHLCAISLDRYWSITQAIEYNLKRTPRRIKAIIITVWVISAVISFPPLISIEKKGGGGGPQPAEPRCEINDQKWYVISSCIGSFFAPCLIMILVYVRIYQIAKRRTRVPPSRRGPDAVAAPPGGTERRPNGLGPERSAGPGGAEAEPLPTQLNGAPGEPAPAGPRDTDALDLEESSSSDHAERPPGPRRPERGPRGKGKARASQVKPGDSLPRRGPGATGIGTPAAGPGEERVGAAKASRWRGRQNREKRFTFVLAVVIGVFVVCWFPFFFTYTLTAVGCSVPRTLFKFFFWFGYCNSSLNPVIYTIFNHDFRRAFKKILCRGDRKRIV
Chain of GPR1 (P46091 whole entry): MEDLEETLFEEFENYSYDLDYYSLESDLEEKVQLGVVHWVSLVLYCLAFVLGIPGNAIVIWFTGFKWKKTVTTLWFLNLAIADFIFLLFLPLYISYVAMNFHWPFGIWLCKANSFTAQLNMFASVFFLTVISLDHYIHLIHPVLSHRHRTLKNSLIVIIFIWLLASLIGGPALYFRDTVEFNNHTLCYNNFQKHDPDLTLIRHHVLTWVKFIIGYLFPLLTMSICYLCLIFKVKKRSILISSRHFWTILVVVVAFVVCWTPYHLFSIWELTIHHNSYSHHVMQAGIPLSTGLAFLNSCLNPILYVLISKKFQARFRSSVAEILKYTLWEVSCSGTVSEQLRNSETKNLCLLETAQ
Chain of EDG1 (P21453 whole entry): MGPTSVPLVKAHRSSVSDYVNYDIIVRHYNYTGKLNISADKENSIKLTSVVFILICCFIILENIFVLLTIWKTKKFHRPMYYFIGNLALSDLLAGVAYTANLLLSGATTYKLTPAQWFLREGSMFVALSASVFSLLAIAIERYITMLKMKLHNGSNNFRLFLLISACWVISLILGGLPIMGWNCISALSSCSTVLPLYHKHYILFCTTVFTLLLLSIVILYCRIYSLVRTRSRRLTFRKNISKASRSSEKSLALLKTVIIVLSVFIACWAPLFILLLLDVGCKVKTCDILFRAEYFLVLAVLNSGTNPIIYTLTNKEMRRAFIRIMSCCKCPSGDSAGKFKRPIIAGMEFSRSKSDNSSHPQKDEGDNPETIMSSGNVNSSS
Chain of SCTR (P47872 23-440): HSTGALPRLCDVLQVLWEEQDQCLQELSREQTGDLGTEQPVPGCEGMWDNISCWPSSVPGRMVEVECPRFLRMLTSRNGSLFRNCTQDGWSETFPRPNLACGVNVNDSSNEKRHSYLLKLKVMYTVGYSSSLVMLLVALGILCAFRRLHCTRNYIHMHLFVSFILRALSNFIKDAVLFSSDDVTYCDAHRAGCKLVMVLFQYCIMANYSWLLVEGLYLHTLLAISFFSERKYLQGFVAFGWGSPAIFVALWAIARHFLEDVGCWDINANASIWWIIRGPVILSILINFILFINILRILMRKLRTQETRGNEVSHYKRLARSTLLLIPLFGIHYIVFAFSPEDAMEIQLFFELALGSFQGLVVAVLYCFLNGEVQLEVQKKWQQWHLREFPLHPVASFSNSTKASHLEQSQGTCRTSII
Chain of GPR103 (Q96P65 whole entry): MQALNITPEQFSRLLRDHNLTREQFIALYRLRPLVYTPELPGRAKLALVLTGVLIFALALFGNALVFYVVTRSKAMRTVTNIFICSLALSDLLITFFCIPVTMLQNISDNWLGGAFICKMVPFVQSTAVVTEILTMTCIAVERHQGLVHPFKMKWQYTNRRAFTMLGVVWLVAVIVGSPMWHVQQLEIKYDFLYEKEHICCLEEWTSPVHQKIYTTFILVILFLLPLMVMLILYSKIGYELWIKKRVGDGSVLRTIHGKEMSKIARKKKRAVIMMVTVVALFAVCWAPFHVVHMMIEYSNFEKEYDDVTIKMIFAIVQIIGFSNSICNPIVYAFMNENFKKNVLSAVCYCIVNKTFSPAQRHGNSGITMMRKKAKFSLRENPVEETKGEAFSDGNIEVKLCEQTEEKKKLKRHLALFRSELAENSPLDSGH
Chain of SSTR3 (P32745 whole entry): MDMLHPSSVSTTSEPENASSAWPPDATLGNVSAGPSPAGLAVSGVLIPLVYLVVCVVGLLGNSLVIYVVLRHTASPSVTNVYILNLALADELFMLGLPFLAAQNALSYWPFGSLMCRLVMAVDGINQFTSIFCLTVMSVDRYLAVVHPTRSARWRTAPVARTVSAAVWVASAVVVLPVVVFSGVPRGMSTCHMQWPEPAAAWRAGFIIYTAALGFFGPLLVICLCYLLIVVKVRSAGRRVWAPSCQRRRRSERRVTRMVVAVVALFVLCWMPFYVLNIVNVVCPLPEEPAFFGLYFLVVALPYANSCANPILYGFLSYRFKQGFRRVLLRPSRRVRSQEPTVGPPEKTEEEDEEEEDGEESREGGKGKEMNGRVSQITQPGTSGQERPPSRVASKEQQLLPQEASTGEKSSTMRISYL
Chain of F2RL1 (P55085 26-397): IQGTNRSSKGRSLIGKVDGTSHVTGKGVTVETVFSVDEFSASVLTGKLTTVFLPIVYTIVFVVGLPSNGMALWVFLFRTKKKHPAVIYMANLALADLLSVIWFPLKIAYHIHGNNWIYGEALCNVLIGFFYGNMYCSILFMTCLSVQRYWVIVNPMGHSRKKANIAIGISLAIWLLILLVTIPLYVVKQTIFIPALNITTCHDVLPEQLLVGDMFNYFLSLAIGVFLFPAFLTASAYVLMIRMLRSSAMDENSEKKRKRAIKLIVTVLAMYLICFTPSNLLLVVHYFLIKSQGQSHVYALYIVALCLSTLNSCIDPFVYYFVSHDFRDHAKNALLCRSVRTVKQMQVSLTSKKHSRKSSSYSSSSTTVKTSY

Structure (SMILES): Cc1c(Cl)cccc1NC(=O)c1sc2nc3c(cc2c1N)C(=O)CCC3 [Compound 1]
- inhibition at 10 µM (AVPR1B): 3%
- inhibition at 10 µM (ADRA2C): -14%
- inhibition at 10 µM (SCTR): 13%
- inhibition at 10 µM (ADRA2B): -9%
- inhibition at 10 µM (UTR2): 10%
- inhibition at 10 µM (F2RL1): 11%
- inhibition at 10 µM (MC1R): -16%
- inhibition at 10 µM (HTR5A): 2%
- inhibition at 10 µM (GPR119): 23%
- inhibition at 10 µM (TSHR(L)): -24%
- inhibition at 10 µM (GHSR): -2%
- inhibition at 10 µM (ADRA2A): 8%
- GI50 (LC:NCI-H23): 169 nM
- inhibition at 10 µM (CCR7): 34%
- inhibition at 10 µM (TRHR): 13%
- inhibition at 10 µM (EBI2): 4%
- inhibition at 10 µM (OXTR): 7%
- inhibition at 10 µM (SSTR3): 5%
- GI50 (LC:NCI-H460): 40.8 nM
- GI50 (ME:SK-MEL-5): 237 nM
- inhibition at 10 µM (NPFFR1): -55%
- GI50 (CO:HCT-15): 70.5 nM
- inhibition at 10 µM (CALCRL-RAMP1): 6%
- inhibition at 10 µM (LTB4R): 4%
- inhibition at 10 µM (GPR1): 7%
- GI50 (RE:ACHN): 83.7 nM
- GI50 (ME:LOX IMVI): 80.3 nM
- inhibition at 10 µM (CXCR1): 2%
- GI50 (ME:SK-MEL-2): 47.7 nM
- inhibition at 10 µM (GPR103): -5%
- GI50 (OV:OVCAR-4): 604 nM
- inhibition at 10 µM (EDG1): -6%
- inhibition at 10 µM (C3AR1): -3%
- GI50 (ME:MALME-3M): 36.3 nM
- inhibition at 10 µM (SSTR5): -3%
- inhibition at 10 µM (PTGIR): 8%
- inhibition at 10 µM (HRH3): -14%
- inhibition at 10 µM (HTR2C): -4%
- inhibition at 10 µM (CCKAR): 6%
- inhibition at 10 µM (BDKRB1): -9%
